{"source": "paper PMC9109178", "about": "(Science (New York, N.Y.), 2021)", "key": {"A. baumannii MsbA [1]": {"target": "T1, A. baumannii MsbA (Acinetobacter baumannii, UniProt A0A0B9X4I2)", "T1 sequence (A0A0B9X4I2 1-575)": "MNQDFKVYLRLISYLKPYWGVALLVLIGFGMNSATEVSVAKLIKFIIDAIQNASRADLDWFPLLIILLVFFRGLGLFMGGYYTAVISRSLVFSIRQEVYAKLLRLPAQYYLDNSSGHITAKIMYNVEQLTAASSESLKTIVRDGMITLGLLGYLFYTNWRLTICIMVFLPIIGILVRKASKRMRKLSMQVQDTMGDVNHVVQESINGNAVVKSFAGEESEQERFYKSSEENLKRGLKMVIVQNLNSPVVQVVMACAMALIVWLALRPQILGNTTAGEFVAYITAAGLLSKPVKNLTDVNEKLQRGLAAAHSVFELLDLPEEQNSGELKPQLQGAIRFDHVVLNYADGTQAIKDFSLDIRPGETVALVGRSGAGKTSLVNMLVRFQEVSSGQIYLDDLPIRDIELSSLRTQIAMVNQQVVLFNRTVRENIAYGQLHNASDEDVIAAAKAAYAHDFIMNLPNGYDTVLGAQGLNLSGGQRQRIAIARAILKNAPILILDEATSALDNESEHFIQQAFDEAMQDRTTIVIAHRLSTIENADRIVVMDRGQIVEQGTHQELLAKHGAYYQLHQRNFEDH", "conditions": "POPG nanodiscs, no TBT1"}, "A. baumannii MsbA [2]": {"target": "T1, A. baumannii MsbA", "test": "ATPase activity assay", "format": "biochemical", "conditions": "stimulation of ATPase activity; allosteric, central substrate (LPS) binding site"}}, "note": "pEC50: −log10 of the molar value."}
{"smiles": "Nc1ncnc2c1ncn2[C@@H]1O[C@H](COP(=O)(O)OP(=O)(O)OP(=O)(O)O)[C@@H](O)[C@H]1O", "note": "[ATP]", "values": [{"measurement": "ATPase activity, Michaelis-Menten kinetics", "setting": "A. baumannii MsbA [1]", "value": "ATPase activity of A. baumannii MsbA in nanodiscs, measured at varying ATP and TBT1 concentrations"}]}
{"smiles": "O=C(Nc1sc2c(c1C(=O)O)CCCC2)c1ccc(Cl)cc1", "note": "[TBT1]", "values": [{"measurement": "pEC50", "setting": "A. baumannii MsbA [2]", "value": "~4.89"}]}
